According to ChEMBL document CHEMBL1201862, “PubChem BioAssay data set” (2004):
The source made the active and inactive calls.

Legend:
[1] = target: DNA dC->dU-editing enzyme APOBEC-3G (Homo sapiens, UniProt Q9HC16); assay: Dose Response confirmation of small molecule APOBEC3G DNA Deaminase Inhibitors via a fluorescence-based single-stranded DNA deaminase assay. [Related pubchem assays (depositor defined):AID493012, AID493028]; type: functional
[2] = target: DNA dC->dU-editing enzyme APOBEC-3A (Homo sapiens, UniProt P31941); assay: A3A deaminase inhibition for selectivity – biochemical, dose response (AID 504722); type: functional
Chain of DNA dC->dU-editing enzyme APOBEC-3A (P31941 whole entry): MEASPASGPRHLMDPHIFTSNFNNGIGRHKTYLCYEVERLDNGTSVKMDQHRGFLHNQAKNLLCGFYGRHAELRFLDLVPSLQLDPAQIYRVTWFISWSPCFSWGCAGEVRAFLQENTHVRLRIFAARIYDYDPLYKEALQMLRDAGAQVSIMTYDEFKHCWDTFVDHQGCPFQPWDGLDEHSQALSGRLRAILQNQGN

[3] = target: G-protein coupled receptor 55 (Homo sapiens, UniProt Q9Y2T6); assay: selective activators of receptor GPR55 – imaging, U2OS cells, beta-arrestin-GFP redistribution, primary screen (AID 1961); type: functional
Chain of G-protein coupled receptor 55 (Q9Y2T6 whole entry): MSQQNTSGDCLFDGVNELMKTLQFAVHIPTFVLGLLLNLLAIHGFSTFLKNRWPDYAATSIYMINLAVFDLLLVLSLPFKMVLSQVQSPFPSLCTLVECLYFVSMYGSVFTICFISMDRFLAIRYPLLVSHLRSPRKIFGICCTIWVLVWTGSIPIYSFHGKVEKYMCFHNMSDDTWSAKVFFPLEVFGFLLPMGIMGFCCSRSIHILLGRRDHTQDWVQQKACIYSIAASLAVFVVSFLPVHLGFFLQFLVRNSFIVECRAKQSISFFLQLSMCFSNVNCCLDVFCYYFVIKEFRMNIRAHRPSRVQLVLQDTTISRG

[4] = target: T1, Ubiquitin-conjugating enzyme E2 N (Homo sapiens, UniProt P61088); type: functional;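 further: Dose-response confirmation in a TR-FRET assay detecting UBC13-driven polyubiquitin chain formation, inhibition measured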
T1 sequence (P61088 whole entry): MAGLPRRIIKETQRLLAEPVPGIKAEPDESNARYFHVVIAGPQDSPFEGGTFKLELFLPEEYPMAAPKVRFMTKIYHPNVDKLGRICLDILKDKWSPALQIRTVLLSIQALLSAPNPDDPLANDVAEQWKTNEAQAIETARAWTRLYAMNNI

[5] = viability of uninfected HEp-2 cells – cell-based, HTS, cytotoxicity control for RSV inhibitor project, dose response (AID 2410); type: functional; details: human respiratory syncytial virus
[6] = cells
[7] = viability loss of HPDE-C7K cells – cell-based, fluorescence, HTS, primary screen (AID 431); type: functional; details: Homo sapiens
[8] = Luminescence Cell-Based Dose Retest to Confirm Inhibitors of Cancer Stem Cells. [Related pubchem assays (depositor defined):AID2717, AID2721]; type: functional; details: Homo sapiens
[9] = HPDE-C7 pancreatic duct cell viability loss – fluorescence, HTS (AID 430); type: functional, cell-based; details: Homo sapiens
[10] = target: T2, Microphthalmia-associated transcription factor (Homo sapiens, UniProt O75030); assay: reducers of TRPM1 reporter luminescence, concentration series – cell-based, SK-MEL-5, cherry-picked, set 3, MITF inhibitor project, dose response (AID 493073); type: functional;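 further: SK-MEL-5 melanoma cells with luciferase driven by the MITF target TRPM1 promoter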
T2 sequence (O75030 whole entry): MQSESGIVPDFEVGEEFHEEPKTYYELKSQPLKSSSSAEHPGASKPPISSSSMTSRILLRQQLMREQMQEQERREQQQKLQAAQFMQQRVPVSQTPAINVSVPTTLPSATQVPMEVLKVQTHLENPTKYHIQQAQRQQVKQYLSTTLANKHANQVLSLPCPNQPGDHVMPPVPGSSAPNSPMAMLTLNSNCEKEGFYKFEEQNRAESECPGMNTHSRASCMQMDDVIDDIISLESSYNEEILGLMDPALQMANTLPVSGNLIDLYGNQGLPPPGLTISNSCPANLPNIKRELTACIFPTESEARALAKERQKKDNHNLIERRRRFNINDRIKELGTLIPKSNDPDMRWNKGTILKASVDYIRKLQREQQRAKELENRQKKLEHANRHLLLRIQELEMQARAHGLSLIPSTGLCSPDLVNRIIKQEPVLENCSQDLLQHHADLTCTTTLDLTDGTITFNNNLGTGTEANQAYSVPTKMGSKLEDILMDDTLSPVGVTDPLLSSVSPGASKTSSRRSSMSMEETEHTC

[11] = system: H9c2; assay: cells; type: functional, cell-based; details: Rattus norvegicus, H9c2, Myocardium;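 further: confirmatory concentration-response retest of ultra-high-throughput screening hits for modulation of myocardial damage; cell death induced by hydrogen peroxide oxidative stress; compound pretreatment for 60 min then peroxide exposure for 2 h; potency is for protecting the cells against peroxide damage rather than for killing them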
[12] = target: Beta-galactosidase (Escherichia coli, UniProt Q8VNN2); assay: detection-enzyme interference by beta-gal modulators – biochemical, E. coli enzyme, set 3, artefact control for CCR6 antagonist project, dose response (AID 504712); type: functional
Chain of Beta-galactosidase (Q8VNN2 whole entry): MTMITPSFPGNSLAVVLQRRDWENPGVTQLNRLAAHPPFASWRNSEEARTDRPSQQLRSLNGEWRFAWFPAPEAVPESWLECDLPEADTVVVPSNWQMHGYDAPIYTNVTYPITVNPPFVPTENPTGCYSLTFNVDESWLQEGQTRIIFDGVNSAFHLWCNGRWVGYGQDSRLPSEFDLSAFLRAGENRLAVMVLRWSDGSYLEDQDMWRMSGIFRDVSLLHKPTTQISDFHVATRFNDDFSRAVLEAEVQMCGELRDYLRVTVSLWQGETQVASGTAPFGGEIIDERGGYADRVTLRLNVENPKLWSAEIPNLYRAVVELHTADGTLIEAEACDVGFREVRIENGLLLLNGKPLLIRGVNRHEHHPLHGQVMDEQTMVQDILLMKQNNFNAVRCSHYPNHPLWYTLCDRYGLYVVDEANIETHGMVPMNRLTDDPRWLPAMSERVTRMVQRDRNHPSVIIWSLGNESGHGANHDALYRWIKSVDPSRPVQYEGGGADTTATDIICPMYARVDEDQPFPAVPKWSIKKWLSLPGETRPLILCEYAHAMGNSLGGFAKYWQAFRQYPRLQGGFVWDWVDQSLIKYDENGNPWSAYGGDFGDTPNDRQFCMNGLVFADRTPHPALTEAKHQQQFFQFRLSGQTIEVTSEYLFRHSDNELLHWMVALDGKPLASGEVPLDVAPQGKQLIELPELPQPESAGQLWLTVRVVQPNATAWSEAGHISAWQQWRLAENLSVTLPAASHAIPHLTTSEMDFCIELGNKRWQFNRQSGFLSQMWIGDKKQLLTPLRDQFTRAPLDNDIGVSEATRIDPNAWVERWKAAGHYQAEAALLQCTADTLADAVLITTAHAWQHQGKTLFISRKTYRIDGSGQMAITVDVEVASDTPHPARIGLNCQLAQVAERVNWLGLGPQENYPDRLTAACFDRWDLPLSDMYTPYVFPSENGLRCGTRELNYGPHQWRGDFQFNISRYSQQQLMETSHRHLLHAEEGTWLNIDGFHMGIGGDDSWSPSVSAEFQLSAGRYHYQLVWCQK

[13] = target: T3, Bcl-2-related protein A1 (Mus musculus, UniProt Q07440); type: functional;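 further: confirmatory dose–response counterscreen on Bfl-1, used to check hits from a UBC13 polyubiquitin inhibitor campaign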
T3 sequence (Q07440 whole entry): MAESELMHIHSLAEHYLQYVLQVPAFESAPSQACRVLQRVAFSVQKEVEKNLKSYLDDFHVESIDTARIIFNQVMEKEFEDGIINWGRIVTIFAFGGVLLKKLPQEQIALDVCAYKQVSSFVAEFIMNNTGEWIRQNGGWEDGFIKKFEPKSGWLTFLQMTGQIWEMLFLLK

[14] = target: T4, Estrogen receptor (Homo sapiens, UniProt P03372);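 further: potency for inhibiting coactivator peptide recruitment to the receptor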
T4 sequence (P03372 whole entry): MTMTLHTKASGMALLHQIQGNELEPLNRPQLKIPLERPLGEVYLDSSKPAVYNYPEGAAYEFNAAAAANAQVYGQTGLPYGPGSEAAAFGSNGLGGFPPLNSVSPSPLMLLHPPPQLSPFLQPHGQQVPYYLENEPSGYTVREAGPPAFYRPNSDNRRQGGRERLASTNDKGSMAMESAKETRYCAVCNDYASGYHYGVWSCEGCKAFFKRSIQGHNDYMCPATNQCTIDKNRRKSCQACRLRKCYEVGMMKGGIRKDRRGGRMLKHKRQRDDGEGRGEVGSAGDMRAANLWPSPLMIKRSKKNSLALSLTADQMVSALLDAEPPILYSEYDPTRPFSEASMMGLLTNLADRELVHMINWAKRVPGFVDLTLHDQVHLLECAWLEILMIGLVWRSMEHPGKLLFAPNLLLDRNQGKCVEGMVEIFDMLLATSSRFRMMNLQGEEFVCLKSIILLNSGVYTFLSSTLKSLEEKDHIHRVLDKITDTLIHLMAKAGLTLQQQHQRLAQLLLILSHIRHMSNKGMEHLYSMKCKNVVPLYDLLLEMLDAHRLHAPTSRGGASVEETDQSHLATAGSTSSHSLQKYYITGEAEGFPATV

[15] = target: Glucose-6-phosphate 1-dehydrogenase (Homo sapiens, UniProt P11413); assay: inhibition of Homo sapiens G6PD, dose series – biochemical, fluorescence, selectivity assay for P. falciparum G6PD inhibitor project, dose response (AID 504792); type: functional
Chain of Glucose-6-phosphate 1-dehydrogenase (P11413 whole entry): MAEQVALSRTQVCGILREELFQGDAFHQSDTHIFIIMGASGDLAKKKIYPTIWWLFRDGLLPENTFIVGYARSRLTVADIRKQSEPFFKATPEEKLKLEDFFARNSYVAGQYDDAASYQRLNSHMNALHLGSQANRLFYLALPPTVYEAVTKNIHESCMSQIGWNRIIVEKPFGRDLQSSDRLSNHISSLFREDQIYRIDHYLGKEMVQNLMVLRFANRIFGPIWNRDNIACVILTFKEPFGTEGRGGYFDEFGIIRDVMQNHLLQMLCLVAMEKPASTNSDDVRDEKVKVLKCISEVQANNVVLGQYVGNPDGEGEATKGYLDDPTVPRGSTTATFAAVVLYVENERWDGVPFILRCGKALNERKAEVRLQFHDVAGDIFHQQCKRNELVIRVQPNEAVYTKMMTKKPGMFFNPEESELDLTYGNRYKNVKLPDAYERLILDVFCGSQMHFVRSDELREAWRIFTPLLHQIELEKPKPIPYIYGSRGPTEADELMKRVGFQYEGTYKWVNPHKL

[16] = target: Eukaryotic translation initiation factor 4E (Mus musculus, UniProt P63073); assay: blockers of eIF4G binding by eIF4E – biochemical, TR-FRET, dose response (AID 855); type: functional;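 further: potency for disrupting eIF4E binding to eIF4GI seen as loss of FRET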
Chain of Eukaryotic translation initiation factor 4E (P63073 whole entry): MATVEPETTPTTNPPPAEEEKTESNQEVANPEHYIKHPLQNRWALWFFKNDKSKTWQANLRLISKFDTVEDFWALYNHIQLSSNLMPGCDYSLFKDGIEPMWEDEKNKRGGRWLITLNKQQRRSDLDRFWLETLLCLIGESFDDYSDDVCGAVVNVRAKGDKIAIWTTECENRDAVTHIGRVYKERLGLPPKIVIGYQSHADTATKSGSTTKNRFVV

[17] = target: Large T antigen (Simian virus 40, UniProt P03070); type: functional, Betapolyomavirus macacae;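 further: Confirmatory-stage PubChem screen for compounds that inhibit SV40 T antigen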
Chain of Large T antigen (P03070 whole entry): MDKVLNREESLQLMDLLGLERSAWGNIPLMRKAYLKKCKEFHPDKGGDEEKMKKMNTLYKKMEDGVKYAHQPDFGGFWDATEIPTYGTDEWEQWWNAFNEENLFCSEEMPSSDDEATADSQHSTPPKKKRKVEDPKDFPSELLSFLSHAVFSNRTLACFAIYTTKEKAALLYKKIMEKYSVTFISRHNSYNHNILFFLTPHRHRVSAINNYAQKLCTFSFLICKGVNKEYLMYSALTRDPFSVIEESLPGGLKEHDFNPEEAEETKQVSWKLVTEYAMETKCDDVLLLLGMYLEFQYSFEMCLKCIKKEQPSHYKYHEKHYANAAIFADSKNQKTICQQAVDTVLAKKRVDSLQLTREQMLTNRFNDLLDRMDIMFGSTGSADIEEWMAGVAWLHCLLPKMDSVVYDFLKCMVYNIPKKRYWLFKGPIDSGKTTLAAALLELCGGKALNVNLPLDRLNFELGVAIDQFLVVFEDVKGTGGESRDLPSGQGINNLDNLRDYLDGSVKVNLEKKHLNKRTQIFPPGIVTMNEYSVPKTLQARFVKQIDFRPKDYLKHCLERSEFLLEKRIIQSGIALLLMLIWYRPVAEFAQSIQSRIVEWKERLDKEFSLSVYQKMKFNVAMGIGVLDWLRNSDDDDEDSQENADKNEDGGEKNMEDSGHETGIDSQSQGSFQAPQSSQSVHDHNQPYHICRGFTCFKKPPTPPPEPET

[18] = target: Heat shock protein HSP 90-alpha (Homo sapiens, UniProt P07900); type: functional, organism-based
[19] = microbe, parasite or virus in culture; type: functional; details: Mycobacterium tuberculosis
[20] = non-specific 3'UTR reporter inhibition in Clone20-Shn3RL – cell-based, Renilla luciferase, cherry-picked, counter-screen for Shn3 inhibitor project, dose response (AID 624133); type: functional
[21] = target: T5, Rac GTPase-activating protein 1 (Homo sapiens, UniProt Q9H0H5); assay: blockers of MgcRacGAP-driven Rac1 GTP hydrolysis – biochemical, ADP Hunter fluorescence, primary and confirmatory, confirmation (AID 624330); type: functional
T5 sequence (Q9H0H5 whole entry): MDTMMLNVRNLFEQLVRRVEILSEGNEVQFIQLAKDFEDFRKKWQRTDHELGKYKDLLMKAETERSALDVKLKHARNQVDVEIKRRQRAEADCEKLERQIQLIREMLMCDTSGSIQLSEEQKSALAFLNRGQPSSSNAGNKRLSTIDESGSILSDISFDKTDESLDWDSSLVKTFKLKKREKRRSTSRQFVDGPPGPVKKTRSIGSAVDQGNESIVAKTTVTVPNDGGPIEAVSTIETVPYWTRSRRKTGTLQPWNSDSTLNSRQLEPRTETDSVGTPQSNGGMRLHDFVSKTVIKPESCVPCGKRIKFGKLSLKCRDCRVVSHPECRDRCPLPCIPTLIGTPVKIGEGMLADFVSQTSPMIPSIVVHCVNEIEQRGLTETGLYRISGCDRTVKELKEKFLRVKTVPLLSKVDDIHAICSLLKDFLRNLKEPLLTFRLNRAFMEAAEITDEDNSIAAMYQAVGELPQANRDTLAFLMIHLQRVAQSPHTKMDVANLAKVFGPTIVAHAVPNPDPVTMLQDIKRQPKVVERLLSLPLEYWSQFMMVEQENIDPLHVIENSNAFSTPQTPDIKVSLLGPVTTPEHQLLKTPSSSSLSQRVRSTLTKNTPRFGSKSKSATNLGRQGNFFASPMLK

[22] = system: INS1; assay: INS-1E survival protection against cytokine death – cell-based, luminescence, retest, dose response (AID 449756); type: functional; details: Rattus norvegicus;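 further: cell death triggered by IL-1 beta plus TNF-alpha plus IFN-gamma mixture; protective hits raise ATP signal compared with cytokine alone wells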
[23] = loss of viability in HepG2 cells – cell-based, CellTiter-Glo, cherry-picked, cytotoxicity control for Shn3 inhibitor project, dose response (AID 624134); type: functional
[24] = viability loss in HeLa cells – cytotoxicity control for MgcRacGAP inhibitor project, dose response (AID 624300); type: functional
[25] = reduction of Shn3 3'UTR-driven luciferase in osteoblasts – cell-based, Clone20 osteoblasts, firefly luciferase, cherry-picked, dose response (AID 624132); type: functional;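 further: firefly luciferase luminescence from reporter carrying the Shn3 3'UTR in osteoblasts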
[26] = target: T6, Heat shock factor protein 1 (Mus musculus, UniProt P38532); assay: enhancement of HSF1-driven luciferase signal – cell-based, NIH3T3, luminescence, dose retest, confirmation (AID 435004); type: functional;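 further: stress induced by proteasome inhibitor MG132 added 30 min after compound; luciferase reporter driven by HSF1 response element in NIH3T3 cells; actives raise luminescence as potentiators of the MG132 stress response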
T6 sequence (P38532 whole entry): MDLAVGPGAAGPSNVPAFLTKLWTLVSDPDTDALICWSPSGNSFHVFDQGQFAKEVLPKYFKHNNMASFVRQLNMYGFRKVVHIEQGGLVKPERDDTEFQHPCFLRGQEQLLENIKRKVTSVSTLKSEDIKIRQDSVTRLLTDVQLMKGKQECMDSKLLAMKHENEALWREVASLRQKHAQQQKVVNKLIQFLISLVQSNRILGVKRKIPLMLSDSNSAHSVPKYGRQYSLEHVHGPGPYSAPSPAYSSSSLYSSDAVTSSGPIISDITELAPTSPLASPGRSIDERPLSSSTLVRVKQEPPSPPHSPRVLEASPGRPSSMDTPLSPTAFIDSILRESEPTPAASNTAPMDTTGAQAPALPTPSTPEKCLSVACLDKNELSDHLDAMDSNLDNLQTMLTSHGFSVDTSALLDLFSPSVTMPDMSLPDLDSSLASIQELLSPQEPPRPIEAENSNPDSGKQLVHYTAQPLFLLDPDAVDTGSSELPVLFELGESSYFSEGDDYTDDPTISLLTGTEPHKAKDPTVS

[27] = NIH3T3 cell viability loss – ATP luminescence, mouse fibroblasts, counter-screen, dose response (AID 2010); type: functional, cell-based;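 further: cells exposed to compound for about 90 hours before reading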
[28] = Trypanosoma cruzi growth suppression in host cells – NIH3T3 host cells, beta-gal luminescence, confirmation (AID 2044); type: functional, cell-based;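 further: intracellular parasites grown in NIH/3T3 mouse fibroblasts as host cells; luminescent beta-galactosidase reporter signal from transgenic T. cruzi replicating inside host cells; inhibitors lower the luminescence signal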
[29] = system: Vero; assay: cells; type: functional, cell-based; details: Chlorocebus sabaeus

Chain of DNA dC->dU-editing enzyme APOBEC-3G (Q9HC16 whole entry): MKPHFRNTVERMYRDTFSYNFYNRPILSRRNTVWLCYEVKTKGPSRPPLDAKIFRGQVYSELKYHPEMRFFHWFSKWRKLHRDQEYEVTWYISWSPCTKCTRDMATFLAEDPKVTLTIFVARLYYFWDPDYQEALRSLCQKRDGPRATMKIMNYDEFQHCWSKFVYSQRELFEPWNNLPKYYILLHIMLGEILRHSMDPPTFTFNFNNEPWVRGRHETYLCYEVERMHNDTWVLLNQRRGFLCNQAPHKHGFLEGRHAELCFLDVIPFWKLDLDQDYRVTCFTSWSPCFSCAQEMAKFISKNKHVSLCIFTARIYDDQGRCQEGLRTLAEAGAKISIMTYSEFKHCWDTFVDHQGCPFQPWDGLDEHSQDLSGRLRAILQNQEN

CCCc1cc(-c2n[nH]c(=S)n2CC)cs1
IC50 [1]: 6.08 µM (active)
IC50 [2]: > 100 µM (inactive)

Cc1nc(SCc2ccc(F)cc2)c2oc3ccccc3c2n1
EC50 [3]: > 32 µM (inactive)

COc1ccccc1NC(=O)Nc1nc(C(C)(C)C)cs1
IC50 [4]: > 20 µM (inactive)
CC50 [5]: > 50 µM (active)
IC50 [6]: 30.3 µM (active)

CCOC(=O)c1c(C)oc2c(F)c(F)c(F)c(F)c2c1=O
EC50 [7]: 1.49 µM (active)
AC50 [8]: 1.26 µM (active)
EC50 [9]: 1.55 µM (active)
AC50 [10]: 2.32 µM (active)

COc1cccc(-c2nnc(NC(=O)c3ccc(Cl)s3)o2)c1
IC50 [11]: > 79 µM (inactive)
IC50 [12]: > 66.6 µM (inactive)

O=C(CSc1nc2ccsc2c(=O)n1Cc1ccc(C(=O)O)cc1)NCC1CCCO1 (centres undefined)
IC50 [4]: 17.5 µM (active)
IC50 [13]: > 20 µM (inactive)

CN(C)c1nc(N/N=C\c2ccc(Cl)c([N+](=O)[O-])c2)nc(Nc2ccc(F)cc2)n1
IC50 [14]: > 50 µM (not active)

O=C(Nc1cc(S(=O)(=O)N2CCOCC2)ccc1N1CCOCC1)c1cc2c(s1)CCC2
EC50 [3]: 6.36 µM (active)

CCN(CC)CCn1c(NC(=O)c2ccccc2O)nc2ccccc21
IC50 [12]: > 66.6 µM (inactive)

c1csc(-c2nc3c4ccccc4c4ccccc4c3[nH]2)c1
IC50 [6]: 5.21 µM (active)

CCN(CC)CCNC(=O)CCCCn1c(=S)[nH]c2c([nH]c3ccc(OC)cc32)c1=O
IC50 [1]: 2.5 µM (active)
IC50 [15]: > 80 µM (inactive)
IC50 [2]: > 100 µM (inactive)
IC50 [16]: > 64 µM (inactive)
IC50 [17]: 8.17 µM (active)

CN(c1ccccc1)c1ccc(/C=C/[N+](=O)[O-])cc1
AC50 [18]: 8.67 µM (active)
CC50 [19]: 25.9 µM (active)
AC50 [20]: 17.5 µM (active)
IC50 [21]: 23.3 µM (active)
IC50 [12]: > 66.6 µM (inactive)
AC50 [22]: 6.67 µM (active)
AC50 [23]: 18 µM (active)
CC50 [24]: 38.5 µM (active)
AC50 [25]: 5.79 µM (active)
EC50 [26]: 5.04 µM (inconclusive)

CC(=O)CC1OC(O)=C(Br)/C1=N/Cc1ccccc1 (centres undefined)
EC50 [7]: 9.82 µM (active)
EC50 [27]: 4.68 µM (active)
EC50 [9]: 7.33 µM (active)
IC50 [17]: 41.6 µM (active)
EC50 [28]: 0.808 µM (active)

CCN(CC)S(=O)(=O)c1ccc2c(c1)nc(CCC(=O)Nc1cccc(C(F)(F)F)c1)n2CC
EC50 [3]: 7.88 µM (active)

O=[N+]([O-])c1cc2c(cc1/C=N/n1c(S)nnc1-c1ccccc1)OCO2
IC50 [1]: 1.89 µM (active)
IC50 [2]: > 100 µM (inactive)

CN1c2ccccc2C(C)(C)C12CC(c1ccc(S(=O)(=O)N3CCCCC3)cc1)=NO2 (centres undefined)
CC50 [5]: 6.73 µM (active)
IC50 [29]: 4.14 µM (active)
IC50 [6]: 12 µM (active)
